Counter-ions that a name gives are not always drawn.

In one experiment the target is T1, catalytic domain of human Bub1 (amino acids 704-1085) (Homo sapiens, UniProt O43683).
T1 construct: catalytic domain of human Bub1 (amino acids 704-1085); His6 (N); made in house; host or cells: Hi5 insect cells
T1 sequence (O43683 704-1085): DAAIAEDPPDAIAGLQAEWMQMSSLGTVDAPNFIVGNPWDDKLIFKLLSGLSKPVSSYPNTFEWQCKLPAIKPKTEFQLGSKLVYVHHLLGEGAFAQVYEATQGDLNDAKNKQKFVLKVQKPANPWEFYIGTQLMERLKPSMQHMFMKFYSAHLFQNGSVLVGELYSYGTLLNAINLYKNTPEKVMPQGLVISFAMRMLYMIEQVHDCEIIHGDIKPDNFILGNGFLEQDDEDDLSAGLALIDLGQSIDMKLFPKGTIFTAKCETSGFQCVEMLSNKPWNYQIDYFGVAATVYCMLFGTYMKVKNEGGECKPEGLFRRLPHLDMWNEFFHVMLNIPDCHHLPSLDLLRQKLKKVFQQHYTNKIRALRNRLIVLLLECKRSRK
Kind of experiment: Bub1 kinase assay (TR-FRET). In kind it is biochemical. As to conditions: 10 μM ATP, read-out: Biological Assay 1: Bub1 kinase assay median IC50. How it is done:
To this end, 100-fold concentrated compound solutions (in DMSO) were previously prepared by serial dilution (1:3.4) of 2 mM stocks in a clear low volume 384-well source microtiter plate (Greiner Bio-One, Frickenhausen, Germany), from which 50 nL of compounds were transferred into a black low volume test microtiter plate from the same supplier. […] The resulting mixture (5 μL final volume) was incubated at 22° C. during 60 min., and the reaction was stopped by the addition of 5 μL of an aqueous EDTA-solution (50 mM EDTA, in 100 mM HEPES pH 7.5 and 0.2% (w/v) bovine serum albumin) which also contained the TR-FRET detection reagents (0.2 μM streptavidin-XL665 [Cisbio Bioassays, Codolet, France] and 1 nM anti-phosho-Serine antibody [Merck Millipore, cat. #35-001] and 0.4 nM LANCE EU-W1024 labeled anti-mouse IgG antibody [Perkin-Elmer, product no. AD0077, alternatively a Terbium-cryptate-labeled anti-mouse IgG antibody from Cisbio Bioassays can be used]). The stopped reaction mixture was further incubated 1 h at 22° C. in order to allow the formation of complexes between peptides and detection reagents. Subsequently, the amount of product was evaluated by measurement of the resonance energy transfer from the Eu-chelate-antibody complex recognizing the Phosphoserine residue to the streptavidin-XL665 bound to the biotin moiety of the peptide. […] IC50 values were calculated by fitting the normalized inhibition data to a 4-parameter logistic equation (Minimum, Maximum, IC50, Hill; Y=Max+(Min−Max)/(1+(X/IC50) Hill)).
(TR-FRET usually uses a lanthanide donor and a delayed reading to cut background.)
The term IC50 denotes the concentration at which inhibition is half-maximal. Turning to `CCOc1cc(F)c(Cn2nc(-c3ncc(CC4CNC4)c(Nc4ccnc(C)n4)n3)c3ccccc32)c(F)c1` [Example 2-9-20, 5-(azetidin-3-ylmethyl)-2-[1-(4-ethoxy-2,6-difluorobenzyl)-1H-indazol-3-yl]-N-(2-methylpyrimidin-4-yl)pyrimidin-4-amine, salt with hydrochloric acid], the IC50 was found to be 49 nM. On the same count and under the same terms, then `CCOc1cc(F)c(Cn2nc(-c3ncc(CCN)c(Nc4ccnc(C)n4)n3)c3ccccc32)c(F)c1` [Example 2-9-22, 5-(2-aminoethyl)-2-[1-(4-ethoxy-2,6-difluorobenzyl)-1H-indazol-3-yl]-N-(2-methylpyrimidin-4-yl)pyrimidin-4-amine, salt with hydrochloric acid (1:2)], with 9.3 nM; and `Cc1cc(Nc2cc(C(C)C)nc(-c3nn(Cc4c(F)cc(OCCO)cc4F)c4ccccc34)n2)c(C)cn1` [Example 2-6-30, 2-{4-[(3-{4-[(2,5-dimethylpyridin-4-yl)amino]-6-isopropylpyrimidin-2-yl}-1H-indazol-1-yl)methyl]-3,5-difluorophenoxy} ethanol], with 3200 nM.

Still in this experiment, the particulars now being: Biological Assay 1: Bub1 kinase assay median IC50, 10 μM ATP.
`COc1cnccc1Nc1nc(-c2nn(Cc3c(F)cc(OCCO)cc3F)c3ccccc23)nc2c1CCCCC2` [Example 2-6-44, 2-{3,5-difluoro-4-[(3-{4-[(3-methoxypyridin-4-yl)amino]-6,7,8,9-tetrahydro-5H-cyclohepta[d]pyrimidin-2-yl}-1H-indazol-1-yl)methyl]phenoxy}ethanol] registered an IC50 of 12 nM. Turning to `COCCOc1cc(F)c(Cn2nc(-c3ncc(C4CC4)c(Nc4ccncc4OC)n3)c3ccccc32)c(F)c1` [Example 2-2-48, 5-cyclopropyl-2-{1-[2,6-difluoro-4-(2-methoxyethoxy)benzyl]-1H-indazol-3-yl}-N-(3-methoxypyridin-4-yl)pyrimidin-4-amine], the IC50 was determined as 3.7 nM. Still for that read-out and setting: then `CCOc1cc(F)c(Cn2nc(-c3ncc(CCCN4CCOCC4)c(Nc4ccncc4)n3)c3ccccc32)c(F)c1` [Example 2-2-13, 2-[1-(4-ethoxy-2,6-difluorobenzyl)-1H-indazol-3-yl]-5-[3-(morpholin-4-yl)propyl]-N-(pyridin-4-yl)pyrimidin-4-amine], with 15 nM. `CCOc1cc(F)c(Cn2nc(-c3ncc(CCNCC(F)(F)F)c(Nc4ccnc(NC(C)=O)c4)n3)c3ccccc32)c(F)c1` [Example 2-20-15, N-{4-[(2-[1-(4-ethoxy-2,6-difluorobenzyl)-1H-indazol-3-yl]-5-{2-[(2,2,2-trifluoroethyl)amino]ethyl}pyrimidin-4-yl)amino]pyridin-2-yl}acetamide] yielded a half-maximal inhibitory concentration (IC50) of 22 nM. As for `COCCOc1cc(F)c(Cn2nc(-c3ncc(C4CCNCC4)c(Nc4ccnc(C)n4)n3)c3ccccc32)c(F)c1` [Example 2-17-10, 2-{1-[2,6-difluoro-4-(2-methoxyethoxy)benzyl]-1H-indazol-3-yl}-N-(2-methylpyrimidin-4-yl)-5-(piperidin-4-yl)pyrimidin-4-amine], the midpoint of inhibition, the IC50, lay at 85 nM. Still for that read-out and setting: then `CCOc1cc(F)c(Cn2nc(-c3nc4c(c(Nc5ccncc5Cl)n3)CCC4)c3ccccc32)c(F)c1` [Example 2-14-7, N-(3-chloropyridin-4-yl)-2-[1-(4-ethoxy-2,6-difluorobenzyl)-1H-indazol-3-yl]-6,7-dihydro-5H-cyclopenta[d]pyrimidin-4-amine], with 9.7 nM. Still for that read-out and setting: then `Nc1cc(Nc2nc(-c3nn(Cc4c(F)cc(OCCO)cc4F)c4ccccc34)nc3c2CCC3)ccn1` [Example 2-4-7, 2-{4-[(3-{4-[(2-aminopyridin-4-yl)amino]-6,7-dihydro-5H-cyclopenta[d]pyrimidin-2-yl}-1H-indazol-1-yl)methyl]-3,5-difluorophenoxy}ethanol], with 9.7 nM; and `CCOc1cc(F)c(Cn2nc(-c3nc(Nc4ccnc(NC(C)=O)c4)cc([C@H](C)O)n3)c3ccccc32)c(F)c1` [Example 2-4-9, N-[4-({2-[1-(4-ethoxy-2,6-difluorobenzyl)-1H-indazol-3-yl]-6-[(1S)-1-hydroxyethyl]pyrimidin-4-yl}amino)pyridin-2-yl]acetamide], with 11 nM. For `COCCOc1cc(F)c(Cn2nc(-c3nc4c(c(Nc5cc(C)ncc5C)n3)CCC(C)(C)C4)c3ccccc32)c(F)c1` [Example 2-15-13, 2-{1-[2,6-difluoro-4-(2-methoxyethoxy)benzyl]-1H-indazol-3-yl}-N-(2,5-dimethylpyridin-4-yl)-7,7-dimethyl-5,6,7,8-tetrahydroquinazolin-4-amine], the IC50 was 59 nM. In turn, `COc1cnccc1Nc1nc(-c2nn(Cc3c(F)cc(OCCO)cc3F)c3ccccc23)nc2c1CCC(C)(C)C2` [Example 2-6-26, 2-{3,5-difluoro-4-[(3-{4-[(3-methoxypyridin-4-yl)amino]-7,7-dimethyl-5,6,7,8-tetrahydroquin-azolin-2-yl}-1H-indazol-1-yl)methyl]phenoxy}ethanol] registered an IC50 of 42 nM. In the case of `COCCOc1cc(F)c(Cn2nc(-c3nc4c(c(Nc5ccncc5OC)n3)CCC(C)(C)C4)c3ccccc32)c(F)c1` [Example 2-15-11, 2-{1-[2,6-difluoro-4-(2-methoxyethoxy)benzyl]-1H-indazol-3-yl}-N-(3-methoxypyridin-4-yl)-7,7-dimethyl-5,6,7,8-tetrahydroquinazolin-4-amine], half-maximal inhibition (IC50) required 1700 nM. Regarding `COCCOc1cc(F)c(Cn2nc(-c3nc(C)c(F)c(Nc4ccnc(C)n4)n3)c3ccccc32)c(F)c1` [Example 2-12-75, 2-{1-[2,6-difluoro-4-(2-methoxyethoxy)benzyl]-1H-indazol-3-yl}-5-fluoro-6-methyl-N-(2-methylpyrimidin-4-yl)pyrimidin-4-amine], the IC50 worked out at 180 nM. Still for that read-out and setting: then `COCCOc1cc(F)c(Cn2nc(-c3nc4c(c(Nc5ccncn5)n3)CCC4)c3ccccc32)c(F)c1` [Example 2-12-56, 2-{1-[2,6-difluoro-4-(2-methoxyethoxy)benzyl]-1H-indazol-3-yl}-N-(pyrimidin-4-yl)-6,7-dihydro-5H-cyclopenta[d]pyrimidin-4-amine], with 7 nM; and `CCOc1cc(F)c(Cn2nc(-c3nc(Nc4ccnc(NC(C)=O)c4)cc(C4CCOCC4)n3)c3ccccc32)c(F)c1` [Example 2-12-90, N-[4-({2-[1-(4-ethoxy-2,6-difluorobenzyl)-1H-indazol-3-yl]-6-(tetrahydro-2H-pyran-4-yl)pyrimidin-4-yl}amino)pyridin-2-yl]acetamide], with 11 nM; and `COCCOc1cc(F)c(Cn2nc(-c3nc4c(c(Nc5ccnc(NC(C)=O)c5)n3)CCC(C)(C)C4)c3ccccc32)c(F)c1` [Example 2-15-12, N-{4-[(2-{1-[2,6-difluoro-4-(2-methoxyethoxy)benzyl]-1H-indazol-3-yl}-7,7-dimethyl-5,6,7,8-tetrahydroquinazolin-4-yl)amino]pyridin-2-yl}acetamide], with 21 nM. Compound `CCOc1cc(F)c(Cn2nc(-c3ncc(CCCCN4CC(F)(F)C4)c(Nc4ccncc4)n3)c3ccccc32)c(F)c1` [Example 2-2-20, 5-[4-(3,3-difluoroazetidin-1-yl)butyl]-2-[1-(4-ethoxy-2,6-difluorobenzyl)-1H-indazol-3-yl]-N-(pyridin-4-yl)pyrimidin-4-amine] displayed an IC50 of 58 nM. Regarding `COCCOc1cc(F)c(Cn2nc(-c3ncc(C4CCN(CC(F)(F)F)CC4)c(Nc4ccnc(NC(C)=O)c4)n3)c3ccccc32)c(F)c1` [Example 2-20-7, N-{4-[(2-{1-[2,6-difluoro-4-(2-methoxyethoxy)benzyl]-1H-indazol-3-yl}-5-[1-(2,2,2-trifluoroethyl)piperidin-4-yl]pyrimidin-4-yl)amino]pyridin-2-yl}acetamide], the IC50 was found to be 66 nM. `Cc1nccc(Nc2nc(-c3nn(Cc4c(F)cc(OCCO)cc4F)c4ccccc34)nc(C)c2F)n1` [Example 2-6-32, 2-{3,5-difluoro-4-[(3-{5-fluoro-4-methyl-6-[(2-methylpyrimidin-4-yl)amino]pyrimidin-2-yl}-1H-indazol-1-yl)methyl]phenoxy}ethanol] yielded an IC50 of 210 nM. Consider `CCOc1cc(F)c(Cn2nc(-c3ncc(CCCOC)c(Nc4ccncc4C(=O)O)n3)c3ccccc32)c(F)c1` [Example 2-2-10, 4-({2-[1-(4-ethoxy-2,6-difluorobenzyl)-1H-indazol-3-yl]-5-(3-methoxypropyl)pyrimidin-4-yl}amino)nicotinic acid], for which half-maximal inhibition (IC50) required 20 nM. On to `COCCOc1cc(F)c(Cn2nc(-c3nc4c(c(Nc5ccncc5Cl)n3)CCC(C)(C)C4)c3ccccc32)c(F)c1` [Example 2-15-10, N-(3-chloropyridin-4-yl)-2-{1-[2,6-difluoro-4-(2-methoxyethoxy)benzyl]-1H-indazol-3-yl}-7,7-dimethyl-5,6,7,8-tetrahydroquinazolin-4-amine], for which the IC50 was 1400 nM.

With `COCCOc1cc(F)c(Cn2nc(-c3nc4c(c(Nc5ccncn5)n3)CNC4)c3ccccc32)c(F)c1` [Example 2-9-27, 2-{1-[2,6-difluoro-4-(2-methoxy-ethoxy)benzyl]-1H-indazol-3-yl}-N-(pyrimidin-4-yl)-6,7-dihydro-5H-pyrrolo[3,4-d]pyr-imidin-4-amine, salt with hydrochloric acid], 20 nM corresponded to half-maximal inhibition (IC50).

For the origin of these results see patent US20170275270A1, “BENZYL SUBSTITUTED INDAZOLES” (Bayer Pharma Aktiengesellschaft, priority 2014, published 2017).
